Data published in patent US9079886B2, “Substituted triazole derivatives as gamma secretase modulators” (Janssen Pharmaceuticals, Inc., priority 2010, dated 2015).
Where a name gives a salt, the structure may show the parent alone. Read-outs that look alike come from different tables or passages of the source.

How the values were obtained:
[1] = test system: Aβ42 and Aβtotal in the soluble fraction of brain homogenates; test: In vivo Aβ42 lowering: brain soluble Aβ42 and Aβtotal by ELISA after a single oral dose; design: species or system mouse; conditions: dose 30 mg/kg oral dosing, 4 h after dosing; for response vs control in vivo at 30 mg/kg: Mus musculus, po, 4 h
Excerpt: To determine whether acute administration of an Aβ42 lowering agent would reduce Aβ42 levels in vivo, non-transgenic rodents, e.g. mice or rats were used. Animals treated with the Aβ42 lowering agent were examined and compared to those untreated or treated with vehicle and brain levels of soluble Aβ42 and total A13 were quantitated by standard techniques, for example, using ELISA. Treatment periods varied from hours (h) to days and were adjusted based on the results of the Aβ42 lowering once a time course of onset of effect could be established.
A typical protocol for measuring Aβ42 lowering in vivo is shown but it is only one of many variations that could be used to optimize the levels of detectable Aβ. For example, Aβ42 lowering compounds were formulated in 20% of Captisol® (a sulfobutyl ether of β-cyclodextrin) in water or 20% hydroxypropyl β cyclodextrin. The Aβ42 lowering agents were administered as a single oral dose or by any acceptable route of administration to overnight fasted animals. After 4 h, the animals were sacrificed and Aβ42 levels were analysed.
Blood was collected by decapitation and exsanguinations in EDTA-treated collection tubes. Blood was centrifuged at 1900 g for 10 minutes (min) at 4° C. and the plasma recovered and flash frozen for later analysis. The brain was removed from the cranium and hindbrain. The cerebellum was removed and the left and right hemisphere were separated. The left hemisphere was stored at −18° C. for quantitative analysis of test compound levels. The right hemisphere was rinsed with phosphate-buffered saline (PBS) buffer and immediately frozen on dry ice and stored at −80° C. until homogenization for biochemical assays.
Mouse brains from non-transgenic animals were resuspended in 8 volumes of 0.4% DEA (diethylamine)/50 mM NaCl containing protease inhibitors (Roche-11873580001 or 04693159001) per gram of tissue, e.g. for 0.158 g brain, add 1.264 ml of 0.4% DEA. All samples were homogenized in the FastPrep-24 system (MP Biomedicals) using lysing matrix D (MPBio #6913-100) at 6 m/s for 20 seconds. Homogenates were centrifuged at 221.300×g for 50 min. The resulting high speed supernatants were then transferred to fresh eppendorf tubes. Nine parts of supernatant were neutralized with 1 part 0.5 M Tris-HCl pH 6.8 and used to quantify Aβtotal and Aβ42.
To quantify the amount of Aβtotal and Aβ42 in the soluble fraction of the brain homogenates, Enzyme-Linked-Immunosorbent-Assays were used. Briefly, the standards (a dilution of synthetic Aβ1-40 and Aβ-42, Bachem) were prepared in 1.5 ml Eppendorf tube in Ultraculture, with final concentrations ranging from 10000 to 0.3 pg/ml. The samples and standards were co-incubated with HRPO-labelled N-terminal antibody for Aβ42 detection and with the biotinylated mid-domain antibody 4G8 for Aβtotal detection. 50 μl of conjugate/sample or conjugate/standards mixtures were then added to the antibody-coated plate (the capture antibodies selectively recognize the C-terminal end of Aβ42, antibody JRF/cAB42/26, for Aβ42 detection and the N-terminus of Aβ, antibody JRF/rAβ/2, for Aβtotal detection). The plate was allowed to incubate overnight at 4° C. in order to allow formation of the antibody-amyloid complex. Following this incubation and subsequent wash steps the ELISA for Aβ42 quantification was finished by addition of Quanta Blu fluorogenic peroxidase substrate according to the manufacturer's instructions (Pierce Corp., Rockford, Il). A reading was performed after 10 to 15 min (excitation 320 nm/emission 420 nm).
For Aβtotal detection, a Streptavidine-Peroxidase-Conjugate was added, followed 60 min later by an addional wash step and addition of Quanta Blu fluorogenic peroxidase substrate according to the manufacturer's instructions (Pierce Corp., Rockford, Il). A reading was performed after 10 to 15 min (excitation 320 nm/emission 420 nm). […]

[2] = untreated animals (Ctrl) set at 100, read-out: Aβ42 (% vs Ctrl) _Mean
[3] = untreated animals (Ctrl) set at 100, read-out: Aβtotal (% vs Ctrl)_Mean
[4] = untreated animals (Ctrl) set at 100, 30 mg/kg

SMILES | melting point [°C] | further results
COc1cc(Nc2nc(N3CCCC(C(F)(F)F)C3)n(C(C)C)n2)ccc1-n1cnc(C)n1 (racemic) [Compound 59] | 134 | response vs control in vivo at 30 mg/kg [1, 2]: 69%; response vs control in vivo at 30 mg/kg [1, 3]: 94%
COc1cc(Nc2nc(N3CCCC(C(F)(F)F)C3)n(C(C)C)n2)ccc1-n1cnc(C)n1 (single isomer, unassigned) [Compound 108] | 141.6 | response vs control in vivo at 30 mg/kg [1, 2]: 70%; Aβtotal (% vs Ctrl)_Mean [1, 4]: 94 % vs Ctrl
COc1cc(Nc2nc(N3CCCC(C(F)(F)F)C3)n(C(C)C)n2)ccc1-n1cnc(C)n1 (single isomer, unassigned) [Compound 109] | 140.1 | Aβ42 (% vs Ctrl) _Mean [1, 4]: 85 % vs Ctrl; Aβtotal (% vs Ctrl)_Mean [1, 4]: 117 % vs Ctrl
COc1cc(Nc2nc(Cc3cccc(C(F)(F)F)c3)n(CCNC(C)=O)n2)ccc1-n1cnc(C)c1 [Compound 1] | 179 | –
COc1cc(Nc2nc(N3CCCC(C(F)(F)F)C3)n(C)n2)ccc1-n1cnc(C)c1 (centres unmarked) [Compound 2] | 199.9 | –
COc1cc(NC(=O)c2nc(Oc3ccc(F)cc3C)n(C(C)C)n2)ccc1-n1cnc(C)c1 [Compound 9] | 158.4 | –
COc1nc(Nc2nc(-c3cccc(C(F)(F)F)c3)n(C(C)C)n2)ccc1-n1cnc(C)c1 [Compound 17] | 185.1 | –
COc1cc(Nc2nc(N3CCCC(c4ccccc4)C3)n(C(C)C)n2)ccc1-n1cnc(C)c1 (centres unmarked) [Compound 18] | 164.2 | –
COc1cccc(C2CCN(c3nc(Nc4ccc(-n5cnc(C)c5)c(OC)c4)nn3C(C)C)C2)c1 (centres unmarked) [Compound 53] | 169.9 | –
COc1cc(Nc2nc(N3C[C@@H](C)O[C@@H](C)C3)n(C(C)C)n2)ccc1-n1cnc(C)c1 [Compound 55] | 189.4 | –
COc1cc(Nc2nc(N3CCc4ccccc4C3)n(C)n2)ccc1-n1cnc(C)c1 [Compound 56] | 170.1 | –
COc1cc(Nc2nc(N3CCc4ccccc4C3)n(C(C)C)n2)ccc1-n1cnc(C)c1 [Compound 57] | 214.5 | –
COc1cc(Nc2nc(N3CCOC(c4cccc(C)c4)C3)n(C(C)C)n2)ccc1-n1cnc(C)c1 (centres unmarked) [Compound 58] | – | response vs control in vivo at 30 mg/kg [1, 2]: 88%; response vs control in vivo at 30 mg/kg [1, 3]: 89%
Cc1cc(-c2ccc(Nc3nc(-c4cccc(C(F)(F)F)c4)n(C)n3)cc2)ccn1 [Compound 60] | 184.2 | –
COc1cc(Nc2nc(N3CCCC(C(F)(F)F)C3)n(C(C)C)n2)ccc1-c1ccnc(C)c1 (centres unmarked) [Compound 67] | – | response vs control in vivo at 30 mg/kg [1, 2]: 60%; response vs control in vivo at 30 mg/kg [1, 3]: 89%
COc1cc(Nc2nc(Oc3ccccc3Cl)n(C(C)C)n2)ccc1-c1ccnc(C)c1 [Compound 69] | – | response vs control in vivo at 30 mg/kg [1, 2]: 63%; response vs control in vivo at 30 mg/kg [1, 3]: 97%
Cc1cc(F)ccc1Oc1nc(Nc2ccc(-c3ccncc3)cc2)nn1C(C)C [Compound 112] | 204.1 to 205.4 | –
Cn1nc(Nc2ccc(-c3ccncc3)cc2)nc1-c1cccc(C(F)(F)F)c1 [Compound 113] | 220.7 | –
Cc1cc(-c2ccc(Nc3nc(N4CCOC(C(F)(F)F)C4)n(C(C)C)n3)cc2)ccn1 (centres unmarked) [Compound 133] | – | response vs control in vivo at 30 mg/kg [1, 2]: 67%; response vs control in vivo at 30 mg/kg [1, 3]: 94%
Cc1cc(-c2ccc(Nc3nc(-c4cccc(C(F)(F)F)c4)n(C(C)C)n3)cc2)ccn1 [Compound 137] | 210.3 | –
Cc1cc(-c2ccc(Nc3nc(Oc4ccccc4Cl)n(C(C)C)n3)cc2F)ccn1 [Compound 141] | – | response vs control in vivo at 30 mg/kg [1, 2]: 78%; response vs control in vivo at 30 mg/kg [1, 3]: 98%
COc1cc(Nc2nc(Oc3c(F)cccc3Cl)n(C(C)C)n2)ccc1-c1ccnc(C)c1 [Compound 160] | – | response vs control in vivo at 30 mg/kg [1, 2]: 77%; response vs control in vivo at 30 mg/kg [1, 3]: 83%
Cn1nc(Nc2ccc(-c3ccnc(C(F)(F)F)c3)cc2)nc1-c1cccc(C(F)(F)F)c1 [Compound 178] | 179.2 | –

Continued, in another order:

melting point [°C] | SMILES | further results
131.5 | COc1cc(Nc2nc(OC3CCCC(C(F)(F)F)C3)n(C(C)C)n2)ccc1-c1ccnc(C)c1 (centres unmarked) (as salt: HCl) (hydrate or solvate) [Compound 117] | –
202.7 | COc1cc(Nc2nc(Oc3ccccc3Cl)n(C(C)C)n2)ccc1-n1cnc(C)n1 [Compound 4] | –
157.2 | COc1cc(Nc2nc(Oc3cccc(Cl)c3C)n(C(C)C)n2)ccc1-n1cnc(C)n1 [Compound 8] | –
210.1 | COc1cc(Nc2nc(Oc3ccccc3Cl)n(C)n2)ccc1-n1cnc(C)c1 [Compound 51] | –
175 | COc1cc(Nc2nc(Oc3ccccc3Cl)n(C)n2)ccc1-c1ccnc(C)c1 [Compound 61] | –
177.1 | COc1cc(Nc2nc(N3CCN(C(=O)OC(C)(C)C)CC3)n(C(C)C)n2)ccc1-c1ccnc(C)c1 [Compound 132] | –
221.9 | COc1cc(Nc2nc(-c3cccc(C(F)(F)F)c3)n(C(C)C)n2)ccc1-c1ccnc(C)c1 [Compound 136] | –
199.6 | Cc1cc(-c2ccc(Nc3nc(-c4cccc(C(F)(F)F)c4)n(C(C)C)n3)cc2F)ccn1 [Compound 138] | –
90.1 | COc1cc(Nc2nc(Oc3ccccc3Cl)n(CC(OC)OC)n2)ccc1-c1ccnc(C)c1 [Compound 147] | –
138.6 | COc1cc(Nc2nc(Oc3ccccc3Cl)n(CCNC(C)C)n2)ccc1-c1ccnc(C)c1 [Compound 149] | –
222.6 | Cc1cc(-c2ccc(Nc3nc(Oc4c(C)cccc4Cl)n(C(C)C)n3)cc2)ccn1 [Compound 155] | –
159.6 | Cc1cc(-c2ccc(Nc3nc(Oc4cccc(Cl)c4C)n(C(C)C)n3)cc2)ccn1 [Compound 157] | –
125.4 | COc1cc(Nc2nc(Oc3cccc(Cl)c3)n(C(C)C)n2)ccc1-c1ccnc(C)c1 [Compound 158] | –
132.7 | Cc1cc(-c2ccc(Nc3nc(Oc4cc(F)ccc4Cl)n(C(C)C)n3)cc2)ccn1 [Compound 161] | –
172.7 | COc1cc(Nc2nc(Oc3ccc(F)cc3C)n(C(C)C)n2)ccc1-c1ccnc(C)c1 [Compound 163] | –
138.9 | Cc1cc(-c2ccc(Nc3nc(Oc4ccc(F)cc4C)n(C(C)C)n3)cc2)ccn1 [Compound 164] | –
159.6 | COc1cc(Nc2nc(Oc3ccccc3C(F)(F)F)n(C)n2)ccc1-c1ccnc(C)c1 [Compound 166] | –
145.1 | COc1cc(Nc2nc(Oc3cc(C(F)(F)F)ccc3F)n(C)n2)ccc1-c1ccnc(C)c1 [Compound 168] | –
134.8 | COc1cc(Nc2nc(Oc3ccc(F)cc3C(F)(F)F)n(C(C)C)n2)ccc1-c1ccnc(C)c1 [Compound 169] | –
169.3 | COc1cc(Nc2nc(Oc3cccc(N4CCOCC4)c3)n(C(C)C)n2)ccc1-c1ccnc(C)c1 [Compound 171] | –
158.4 | COc1cc(Nc2nc(N3CCCN(C(C)=O)CC3)n(C(C)C)n2)ccc1-c1ccnc(C)c1 [Compound 176] | –
165.9 to 166.9 | Cc1cc(F)ccc1Oc1nc(Nc2ccc(-c3ccnc(C(F)(F)F)c3)cc2)nn1C(C)C [Compound 177] | –
142.7 to 144.7 | COc1ccc(-c2ccc(Nc3nc(Oc4ccc(F)cc4C)n(C(C)C)n3)cc2)cn1 [Compound 179] | –
132.8 to 143.6 | COc1cc(-c2ccc(Nc3nc(Oc4ccc(F)cc4C)n(C(C)C)n3)cc2)ccn1 [Compound 180] | –
